Reference: patent US20260159512A1, “BCAT2 INHIBITORS” (AGIOS PHARMACEUTICALS, INC., priority 2021, published 2026)

Assays:
Details in all cases: average where tested multiple times
[1] = target: T1, BCAT2 (Homo sapiens, UniProt O15382); experiment: BCAT2 in vitro enzyme inhibition assay (resazurin/diaphorase-coupled fluorescence); format: biochemical
T1 sequence (O15382 28-392): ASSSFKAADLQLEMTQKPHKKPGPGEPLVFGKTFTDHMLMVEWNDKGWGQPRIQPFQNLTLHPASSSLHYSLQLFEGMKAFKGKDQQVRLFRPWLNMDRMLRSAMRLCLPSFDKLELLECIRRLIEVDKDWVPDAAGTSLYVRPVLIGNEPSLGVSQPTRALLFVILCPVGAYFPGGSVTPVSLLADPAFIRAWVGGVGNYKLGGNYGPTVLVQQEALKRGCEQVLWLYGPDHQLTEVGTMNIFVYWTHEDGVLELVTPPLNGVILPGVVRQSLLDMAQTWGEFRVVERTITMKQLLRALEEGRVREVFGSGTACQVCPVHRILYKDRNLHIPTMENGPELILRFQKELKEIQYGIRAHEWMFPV
In short: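 Coupled fluorescence readout: glutamate formed from L-leucine/α-ketoglutarate transamination drives GDH/NAD/diaphorase reduction of resazurin (Ex 540/Em 590). Human BCAT2 was first exposed 1 h at room temperature to compound, top final 100 μM in 3-fold, 10-point series; substrate reaction ran 1 h before SDS quench, in technical duplicate with DMSO max and enzyme-free min controls.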

[2] = target: T1, BCAT2; experiment: BCAT2 in vitro cell inhibition using engineered A549 cells (KMV cell assay, 13C6-KMV by LC-MS/MS); format: cell-based; set-up: The result was an engineered A549 cell line that expressed endogenous BCAT2; endogenous in cells; host or cells: A549 cells with MUT and BCAT1 knocked out by CRISPR/CAS9
[3] = target: T2, hBCAT1 (Homo sapiens, UniProt P54687); experiment: BCAT1 in vitro enzyme inhibition assay (resazurin/diaphorase-coupled fluorescence); format: biochemical
T2 sequence (P54687 1-386): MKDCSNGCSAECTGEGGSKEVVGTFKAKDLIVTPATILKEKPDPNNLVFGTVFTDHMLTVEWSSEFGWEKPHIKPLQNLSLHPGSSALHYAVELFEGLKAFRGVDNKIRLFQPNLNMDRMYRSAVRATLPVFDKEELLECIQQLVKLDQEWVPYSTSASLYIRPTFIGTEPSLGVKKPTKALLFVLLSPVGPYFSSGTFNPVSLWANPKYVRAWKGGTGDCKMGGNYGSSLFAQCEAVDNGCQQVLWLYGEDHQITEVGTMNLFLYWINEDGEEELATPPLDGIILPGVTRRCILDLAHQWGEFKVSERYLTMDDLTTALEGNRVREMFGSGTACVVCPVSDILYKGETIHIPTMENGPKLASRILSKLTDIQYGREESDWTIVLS
In short: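 Human BCAT1 activity read by resazurin/diaphorase-coupled fluorescence. Compounds added from 50× DMSO stocks at 1:50, giving 10-point 3-fold titrations from 100 μM top final concentration. Run in technical duplicate; repeat tests averaged.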

SMILES | IC50 [1] | IC50 [2] | IC50 [3]
CC(C)(C)Cc1nc2cnc(-c3ccccn3)cc2n1[C@@H]1CCC[C@H](NC(=O)c2ncc(Cl)s2)C1 [Example 381, 5-chloro-N-((1S,3R)-3-(2-neopentyl-6-(pyridin-2-yl)-1H-imidazo[4,5-c]pyridin-1-yl)cyclohexyl)thiazole-2-carboxamide] | ≤ 100 nM | 100 to 500 nM | 1000 to 5000 nM
CC(C)Cc1nc2cnc(-c3ncccn3)cc2n1C1CCCC(NC(=O)c2ncc(Cl)s2)C1O (stereo not drawn) [Example 383, 5-chloro-N-(2-hydroxy-3-(2-isobutyl-6-(pyrimidin-2-yl)-1H-imidazo[4,5-c]pyridin-1-yl)cyclohexyl)thiazole-2-carboxamide] | ≤ 100 nM | 100 to 500 nM | < 500 nM
CC(C)Cc1nc2cnc(-c3nccs3)cc2n1C1CCCC(NC(=O)c2ncc(Cl)s2)C1O (stereo not drawn) [Example 386, 5-chloro-N-(2-hydroxy-3-(2-isobutyl-6-(thiazol-2-yl)-1H-imidazo[4,5-c]pyridin-1-yl)cyclohexyl)thiazole-2-carboxamide] | ≤ 100 nM | ≤ 100 nM | < 500 nM
CC(C)(C)Cc1nc2cnc(-n3nccn3)cc2n1[C@@H]1CCC[C@H](NC(=O)c2ccc(Cl)s2)[C@H]1O [Example 387, 5-chloro-N-((1S,2R,3R)-2-hydroxy-3-(2-neopentyl-6-(2H-1,2,3-triazol-2-yl)-1H-imidazo[4,5-c]pyridin-1-yl)cyclohexyl)thiophene-2-carboxamide] | ≤ 100 nM | ≤ 100 nM | < 500 nM
CC(C)(C)Cc1nc2cnc(-c3ccccn3)cc2n1[C@@H]1CCC[C@H](NC(=O)c2ncc(Cl)s2)[C@H]1O [Example 389, 5-chloro-N-((1S,2R,3R)-2-hydroxy-3-(2-neopentyl-6-(pyridin-2-yl)-1H-imidazo[4,5-c]pyridin-1-yl)cyclohexyl)thiazole-2-carboxamide] | ≤ 100 nM | ≤ 100 nM | < 500 nM
CC(C)Cc1nc2cnc(-c3cccc(C#N)n3)cc2n1[C@@H]1CCC[C@H](NC(=O)c2ncc(Cl)s2)[C@H]1O [Example 392, 5-chloro-N-((1S,2R,3R)-3-(6-(6-cyanopyridin-2-yl)-2-isobutyl-1H-imidazo[4,5-c]pyridin-1-yl)-2-hydroxycyclohexyl)thiazole-2-carboxamide] | 100 to 500 nM | > 1000 nM | 1000 to 5000 nM
CC(C)Cc1nc2cnc(-n3nccn3)cc2n1[C@@H]1CCC[C@H](NC(=O)c2ccc(Cl)s2)[C@H]1O [Example 393, 5-chloro-N-((1S,2R,3R)-2-hydroxy-3-(2-isobutyl-6-(2H-1,2,3-triazol-2-yl)-1H-imidazo[4,5-c]pyridin-1-yl)cyclohexyl)thiophene-2-carboxamide] | ≤ 100 nM | ≤ 100 nM | < 500 nM
O=C(N[C@H]1CCC[C@@H](n2c(-c3ccccc3F)nc3cnc(-c4nc[nH]n4)cc32)[C@@H]1O)c1ccc(Cl)s1 [Example 399, 5-chloro-N-((1S,2R,3R)-3-(2-(2-fluorophenyl)-6-(1H-1,2,4-triazol-3-yl)-1H-imidazo[4,5-c]pyridin-1-yl)-2-hydroxycyclohexyl)thiophene-2-carboxamide] | ≤ 100 nM | ≤ 100 nM | < 500 nM
O=C(N[C@H]1CCC[C@@H](n2c(-c3ccccc3F)nc3cnc(-c4nc[nH]n4)cc32)[C@@H]1O)c1ncc(Cl)s1 [Example 400, 5-chloro-N-((1S,2R,3R)-3-(2-(2-fluorophenyl)-6-(1H-1,2,4-triazol-3-yl)-1H-imidazo[4,5-c]pyridin-1-yl)-2-hydroxycyclohexyl)thiazole-2-carboxamide] | ≤ 100 nM | ≤ 100 nM | < 500 nM
CC(C)Cc1nc2cnc(-c3nc[nH]n3)cc2n1[C@@H]1CCC[C@H](NC(=O)c2ccc(Cl)s2)[C@H]1O [Example 401, 5-chloro-N-((1S,2R,3R)-2-hydroxy-3-(2-isobutyl-6-(1H-1,2,4-triazol-3-yl)-1H-imidazo[4,5-c]pyridin-1-yl)cyclohexyl)thiophene-2-carboxamide] | ≤ 100 nM | ≤ 100 nM | < 500 nM
O=C(NC1CCCCC(n2c(-c3ccccc3F)nc3cnc(-c4nc[nH]n4)cc32)C1O)c1ncc(Cl)s1 (stereo not drawn) [Example 402, 5-chloro-N-((2-(2-fluorophenyl)-6-(1H-1,2,4-triazol-3-yl)-1H-imidazo[4,5-c]pyridin-1-yl)-2-hydroxycycloheptyl)thiazole-2-carboxamide] | ≤ 100 nM | ≤ 100 nM | < 500 nM
O=C(NC1CCCCC(n2c(-c3c(O)cccc3F)nc3cnc(-c4nc[nH]n4)cc32)C1O)c1ccc(Cl)s1 (stereo not drawn) [Example 403, 5-chloro-N-(3-(2-(2-fluoro-6-hydroxyphenyl)-6-(1H-1,2,4-triazol-3-yl)-1H-imidazo[4,5-c]pyridin-1-yl)-2-hydroxycycloheptyl)thiophene-2-carboxamide] | ≤ 100 nM | 100 to 500 nM | < 500 nM
O=C(N[C@H]1CCCC[C@@H](n2c(-c3ccccc3F)nc3cnc(-c4nc[nH]n4)cc32)[C@@H]1O)c1ccc(Cl)s1 [Example 405, 5-chloro-N-((1S,2R,3R)-3-(2-(2-fluorophenyl)-6-(1H-1,2,4-triazol-3-yl)-1H-imidazo[4,5-c]pyridin-1-yl)-2-hydroxycycloheptyl)thiophene-2-carboxamide] | ≤ 100 nM | ≤ 100 nM | < 500 nM
COc1cccc(F)c1-c1nc2cnc(-c3nc[nH]n3)cc2n1[C@@H]1CCCC[C@H](NC(=O)c2ccc(Cl)s2)[C@H]1O [Example 407, 5-chloro-N-((1S,2R,3R)-3-(2-(2-fluoro-6-methoxyphenyl)-6-(1H-1,2,4-triazol-3-yl)-1H-imidazo[4,5-c]pyridin-1-yl)-2-hydroxycycloheptyl)thiophene-2-carboxamide] | ≤ 100 nM | ≤ 100 nM | < 500 nM
CO[C@H]1C[C@H](NC(=O)c2ncc(Cl)s2)C[C@H](n2c(CC(C)C)nc3cnc(-c4nc(C)co4)cc32)C1 [Example 409, 5-chloro-N-((1R,3S,5S)-3-(2-isobutyl-6-(4-methyloxazol-2-yl)-1H-imidazo[4,5-c]pyridin-1-yl)-5-methoxycyclohexyl)thiazole-2-carboxamide] | ≤ 100 nM | 100 to 500 nM | 500 to 1000 nM
CO[C@H]1C[C@H](NC(=O)c2ncc(Cl)s2)C[C@H](n2c(CC(C)C)nc3cnc(-n4cncn4)cc32)C1 [Example 417, 5-chloro-N-((1R,3S,5S)-3-(2-isobutyl-6-(1H-1,2,4-triazol-1-yl)-1H-imidazo[4,5-c]pyridin-1-yl)-5-methoxycyclohexyl)thiazole-2-carboxamide] | 100 to 500 nM | > 1000 nM | 1000 to 5000 nM
CO[C@H]1C[C@H](NC(=O)c2ncc(Cl)s2)C[C@H](n2c(CC(C)C)nc3cnc(-n4nccn4)cc32)C1 [Example 421, 5-chloro-N-((1R,3S,5S)-3-(2-isobutyl-6-(2H-1,2,3-triazol-2-yl)-1H-imidazo[4,5-c]pyridin-1-yl)-5-methoxycyclohexyl)thiazole-2-carboxamide] | ≤ 100 nM | 100 to 500 nM | 500 to 1000 nM
CO[C@H]1C[C@H](NC(=O)c2ncc(Cl)s2)C[C@H](n2c(-c3ccccc3F)nc3cnc(N4CCC[C@H]4CO)cc32)C1 [Example 429, 5-chloro-N-((1R,3S,5S)-3-(2-(2-fluorophenyl)-6-((S)-2-(hydroxymethyl)pyrrolidin-1-yl)-1H-imidazo[4,5-c]pyridin-1-yl)-5-methoxycyclohexyl)thiazole-2-carboxamide] | ≤ 100 nM | ≤ 100 nM | 500 to 1000 nM
CO[C@H]1C[C@H](NC(=O)c2ncc(Cl)s2)C[C@H](n2c(CC(C)C)nc3cnc(-c4ncccn4)cc32)C1 [Example 435, 5-chloro-N-((1R,3S,5S)-3-(2-isobutyl-6-(pyrimidin-2-yl)-1H-imidazo[4,5-c]pyridin-1-yl)-5-methoxycyclohexyl)thiazole-2-carboxamide] | ≤ 100 nM | ≤ 100 nM | < 500 nM
